Results from the supplement of paper PMC10307832.

Columns and labels:
Assay in all cases: relative viability (nuclei count vs DMSO), 5 days (fraction); higher = more cells survive
NCI-H1915 = tested on: NCI-H1915
Summary of the method: (§1)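 Each reported value is a median over duplicate plates. It expresses relative viability: treated-well nuclei count divided by vehicle-well nuclei count. Lung cancer cell lines in 1536-well plates were dosed by pin tool a day after seeding, alone with one drug or with a fixed anchor-drug dose plus five library-drug doses (not always all listed) in √10 steps, and nuclei were counted after 5 days.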

NCI-H661 = tested on: NCI-H661
Summary of the method: as §1

NCI-H1355 = tested on: NCI-H1355
Summary of the method: as §1

NCI-H3122 = tested on: NCI-H3122
Summary of the method: as §1

NCI-H1563 = tested on: NCI-H1563
Summary of the method: as §1

NCI-H322M = tested on: NCI-H322M
Summary of the method: as §1

SW 900 = tested on: SW 900
Summary of the method: as §1

NCI-H460 = tested on: NCI-H460
Summary of the method: as §1

NCI-H1755 = tested on: NCI-H1755
Summary of the method: as §1

LXF-289 = tested on: LXF-289
Summary of the method: as §1

NCI-H441 = tested on: NCI-H441
Summary of the method: as §1

NCI-H1792 = tested on: NCI-H1792
Summary of the method: as §1

SK-MES-1 = tested on: SK-MES-1
Summary of the method: as §1

NCI-H1651 = tested on: NCI-H1651
Summary of the method: as §1

NCI-H520 = tested on: NCI-H520
Summary of the method: as §1

LCLC-103H = tested on: LCLC-103H
Summary of the method: as §1

RERF-LC-KJ = tested on: RERF-LC-KJ
Summary of the method: as §1

NCI-H2347 = tested on: NCI-H2347
Summary of the method: as §1

NCI-H522 = tested on: NCI-H522
Summary of the method: as §1

PC-14 = tested on: PC-14
Summary of the method: as §1

NCI-H596 = tested on: NCI-H596
Summary of the method: as §1

O=c1cc(-c2cccc3c2Sc2ccccc2S3)oc(N2CCOCC2)c1 + Nc1nc2[nH]cc(CCc3ccc(C(=O)N[C@@H](CCC(=O)O)C(=O)O)cc3)c2c(=O)[nH]1 [Pemetrexed] (partner 0.2 µM)
relative viability (NCI-H1915; first compound 0.08 µM): 0.507
relative viability (NCI-H1915; first compound 0.253 µM): 0.442
relative viability (NCI-H1915; first compound 0.8 µM): 0.552
relative viability (NCI-H1915; first compound 2.53 µM): 0.52
relative viability (NCI-H1915; first compound 8 µM): 0.405
relative viability (NCI-H661; first compound 0.08 µM): 0.9
relative viability (NCI-H661; first compound 0.253 µM): 0.942
relative viability (NCI-H661; first compound 0.8 µM): 0.962
relative viability (NCI-H661; first compound 2.53 µM): 0.874
relative viability (NCI-H661; first compound 8 µM): 0.899
relative viability (NCI-H1355; first compound 0.08 µM): 1.11
relative viability (NCI-H1355; first compound 0.253 µM): 1.15
relative viability (NCI-H1355; first compound 0.8 µM): 0.898
relative viability (NCI-H1355; first compound 2.53 µM): 0.995
relative viability (NCI-H1355; first compound 8 µM): 1.06
relative viability (NCI-H3122; first compound 0.08 µM): 0.205
relative viability (NCI-H3122; first compound 0.253 µM): 0.197
relative viability (NCI-H3122; first compound 0.8 µM): 0.186
relative viability (NCI-H3122; first compound 2.53 µM): 0.191
relative viability (NCI-H3122; first compound 8 µM): 0.18
relative viability (NCI-H1563; first compound 0.08 µM): 0.695
relative viability (NCI-H1563; first compound 0.253 µM): 0.741
relative viability (NCI-H1563; first compound 0.8 µM): 0.744
relative viability (NCI-H1563; first compound 2.53 µM): 0.684
relative viability (NCI-H1563; first compound 8 µM): 0.787
relative viability (NCI-H322M; first compound 0.08 µM): 0.57
relative viability (NCI-H322M; first compound 0.253 µM): 0.61
relative viability (NCI-H322M; first compound 0.8 µM): 0.598
relative viability (NCI-H322M; first compound 2.53 µM): 0.634
relative viability (NCI-H322M; first compound 8 µM): 0.602
relative viability (SW 900; first compound 0.253 µM): 0.492
relative viability (SW 900; first compound 0.8 µM): 0.495
relative viability (SW 900; first compound 2.53 µM): 0.439
relative viability (SW 900; first compound 8 µM): 0.438
relative viability (NCI-H460; first compound 0.08 µM): 0.0549
relative viability (NCI-H460; first compound 0.253 µM): 0.0572
relative viability (NCI-H460; first compound 0.8 µM): 0.0622
relative viability (NCI-H460; first compound 2.53 µM): 0.0639
relative viability (NCI-H460; first compound 8 µM): 0.0685
relative viability (NCI-H1755; first compound 0.08 µM): 0.572
relative viability (NCI-H1755; first compound 0.253 µM): 0.398
relative viability (NCI-H1755; first compound 0.8 µM): 0.389
relative viability (NCI-H1755; first compound 2.53 µM): 0.574
relative viability (NCI-H1755; first compound 8 µM): 0.366
relative viability (LXF-289; first compound 0.08 µM): 0.95
relative viability (LXF-289; first compound 0.253 µM): 0.96
relative viability (LXF-289; first compound 0.8 µM): 0.975
relative viability (LXF-289; first compound 2.53 µM): 0.93
relative viability (LXF-289; first compound 8 µM): 1.03
relative viability (NCI-H441; first compound 0.08 µM): 0.258
relative viability (NCI-H441; first compound 0.253 µM): 0.268
relative viability (NCI-H441; first compound 0.8 µM): 0.255
relative viability (NCI-H441; first compound 2.53 µM): 0.26
relative viability (NCI-H441; first compound 8 µM): 0.241
relative viability (NCI-H1792; first compound 0.08 µM): 0.75
relative viability (NCI-H1792; first compound 0.253 µM): 1.54
relative viability (NCI-H1792; first compound 0.8 µM): 0.775
relative viability (NCI-H1792; first compound 2.53 µM): 0.776
relative viability (NCI-H1792; first compound 8 µM): 0.729
relative viability (SK-MES-1; first compound 0.08 µM): 1.07
relative viability (SK-MES-1; first compound 0.253 µM): 1.07
relative viability (SK-MES-1; first compound 0.8 µM): 0.838
relative viability (SK-MES-1; first compound 2.53 µM): 0.792
relative viability (SK-MES-1; first compound 8 µM): 0.833
relative viability (NCI-H1651; first compound 0.08 µM): 0.563
relative viability (NCI-H1651; first compound 0.253 µM): 0.636
relative viability (NCI-H1651; first compound 0.8 µM): 0.604
relative viability (NCI-H1651; first compound 2.53 µM): 0.589
relative viability (NCI-H1651; first compound 8 µM): 0.603
relative viability (NCI-H520; first compound 0.08 µM): 0.634
relative viability (NCI-H520; first compound 0.253 µM): 0.835
relative viability (NCI-H520; first compound 0.8 µM): 0.739
relative viability (NCI-H520; first compound 2.53 µM): 0.717
relative viability (NCI-H520; first compound 8 µM): 0.69
relative viability (LCLC-103H; first compound 0.08 µM): 0.44
relative viability (LCLC-103H; first compound 0.253 µM): 0.467
relative viability (LCLC-103H; first compound 0.8 µM): 0.473
relative viability (LCLC-103H; first compound 2.53 µM): 0.423
relative viability (LCLC-103H; first compound 8 µM): 0.438
relative viability (RERF-LC-KJ; first compound 0.08 µM): 0.443
relative viability (RERF-LC-KJ; first compound 0.253 µM): 0.469
relative viability (RERF-LC-KJ; first compound 0.8 µM): 0.504
relative viability (RERF-LC-KJ; first compound 2.53 µM): 0.474
relative viability (RERF-LC-KJ; first compound 8 µM): 0.469
relative viability (NCI-H2347; first compound 0.08 µM): 0.386
relative viability (NCI-H2347; first compound 0.253 µM): 0.458
relative viability (NCI-H2347; first compound 0.8 µM): 0.465
relative viability (NCI-H2347; first compound 2.53 µM): 0.424
relative viability (NCI-H2347; first compound 8 µM): 0.435
relative viability (NCI-H522; first compound 0.08 µM): 0.844
relative viability (NCI-H522; first compound 0.253 µM): 1.13
relative viability (NCI-H522; first compound 0.8 µM): 0.851
relative viability (NCI-H522; first compound 2.53 µM): 1.03
relative viability (NCI-H522; first compound 8 µM): 1.12
relative viability (PC-14; first compound 0.08 µM): 0.138
relative viability (PC-14; first compound 0.253 µM): 0.135
relative viability (PC-14; first compound 0.8 µM): 0.132
relative viability (PC-14; first compound 2.53 µM): 0.119
relative viability (PC-14; first compound 8 µM): 0.12
relative viability (NCI-H596; first compound 0.08 µM): 0.422
relative viability (NCI-H596; first compound 0.253 µM): 0.52
relative viability (NCI-H596; first compound 0.8 µM): 0.536
relative viability (NCI-H596; first compound 2.53 µM): 0.543
relative viability (NCI-H596; first compound 8 µM): 0.478
